These results are taken from patent US20240400577A1, “MODULATORS OF PROTEIN KINASES” (VIBLIOME THERAPEUTICS, LLC, priority 2021, published 2024).

Holding throughout (test): Kinase panel enzymatic inhibition assay (Nanosyn)
Holding throughout (assay type): biochemical
Holding throughout (conditions): compound 5 μM; ATP at Km; 30-minute pre-incubation

The target in one experiment is T1, LYNb (Homo sapiens, UniProt P07948).
T1 construct: purchased Nanosyn (contract screening)
The procedure, abridged: (§1)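 Inhibition is expressed as percent at 5 μM or as IC50, with ATP set at the Km of each kinase and a 30-minute compound pre-incubation. Detection used an accepted enzymatic format such as Caliper mobility shift.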

A further experiment deals with T2, CRAF (Homo sapiens, UniProt P04049).
T2 construct: purchased Nanosyn (contract screening)
The procedure, abridged:
as §1

In a further experiment the target is T3, RET (Homo sapiens, UniProt P07949).
T3 construct: Nanosyn (contract laboratory that ran the panel)
The procedure, abridged:
as §1

The target in the next experiment is T4, PIKfyve (Homo sapiens, UniProt Q9Y2I7).
T4 construct: Nanosyn (contract laboratory that ran the panel)
The procedure, abridged: as §1

In a further experiment the target is T5, PDGFRb (Homo sapiens, UniProt P09619).
T5 construct: Nanosyn (contract laboratory that ran the panel)
The procedure, abridged:
as §1

The target of a further experiment is T6, LYNa (Homo sapiens, UniProt P07948).
T6 construct: purchased Nanosyn (contract screening)
The procedure, abridged: as §1

The target of the next experiment is T7, FYN (Homo sapiens, UniProt P06241).
T7 construct: purchased Nanosyn (contract screening)
The procedure, abridged:
as §1

For another experiment, the target named is T8, SGK2 (Homo sapiens, UniProt Q9HBY8).
T8 construct: Nanosyn (contract laboratory that ran the panel)
T8 sequence (Q9HBY8 1-367): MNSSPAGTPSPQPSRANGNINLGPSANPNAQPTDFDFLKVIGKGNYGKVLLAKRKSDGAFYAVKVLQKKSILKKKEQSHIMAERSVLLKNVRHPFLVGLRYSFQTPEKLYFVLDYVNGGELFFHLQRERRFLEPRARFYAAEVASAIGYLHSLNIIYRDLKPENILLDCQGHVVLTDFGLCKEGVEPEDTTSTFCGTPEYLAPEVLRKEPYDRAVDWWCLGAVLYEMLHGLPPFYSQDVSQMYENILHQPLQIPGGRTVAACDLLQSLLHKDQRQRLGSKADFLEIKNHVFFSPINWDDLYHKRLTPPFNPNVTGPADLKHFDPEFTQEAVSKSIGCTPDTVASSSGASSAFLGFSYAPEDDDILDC
The procedure, abridged: as §1

A further experiment concerns the target T9, Abl1 (Homo sapiens, UniProt P00519).
T9 construct: purchased Nanosyn (contract screening)
The procedure, abridged:
as §1

The target in another experiment is T10, ZAK (Homo sapiens, UniProt Q9NYL2).
T10 construct: Nanosyn (contract laboratory that ran the panel)
The procedure, abridged:
as §1

Another experiment addresses T11, PDGFRa (Homo sapiens, UniProt P16234).
T11 construct: Nanosyn (contract laboratory that ran the panel)
The procedure, abridged: as §1

A further experiment deals with T12, ERBB4 (Homo sapiens, UniProt Q15303).
T12 construct: purchased Nanosyn (contract screening)
The procedure, abridged: as §1

For another experiment, the target named is T13, SPHK2 (Homo sapiens, UniProt Q9NRA0).
T13 construct: Nanosyn (contract laboratory that ran the panel)
T13 sequence (Q9NRA0 1-654): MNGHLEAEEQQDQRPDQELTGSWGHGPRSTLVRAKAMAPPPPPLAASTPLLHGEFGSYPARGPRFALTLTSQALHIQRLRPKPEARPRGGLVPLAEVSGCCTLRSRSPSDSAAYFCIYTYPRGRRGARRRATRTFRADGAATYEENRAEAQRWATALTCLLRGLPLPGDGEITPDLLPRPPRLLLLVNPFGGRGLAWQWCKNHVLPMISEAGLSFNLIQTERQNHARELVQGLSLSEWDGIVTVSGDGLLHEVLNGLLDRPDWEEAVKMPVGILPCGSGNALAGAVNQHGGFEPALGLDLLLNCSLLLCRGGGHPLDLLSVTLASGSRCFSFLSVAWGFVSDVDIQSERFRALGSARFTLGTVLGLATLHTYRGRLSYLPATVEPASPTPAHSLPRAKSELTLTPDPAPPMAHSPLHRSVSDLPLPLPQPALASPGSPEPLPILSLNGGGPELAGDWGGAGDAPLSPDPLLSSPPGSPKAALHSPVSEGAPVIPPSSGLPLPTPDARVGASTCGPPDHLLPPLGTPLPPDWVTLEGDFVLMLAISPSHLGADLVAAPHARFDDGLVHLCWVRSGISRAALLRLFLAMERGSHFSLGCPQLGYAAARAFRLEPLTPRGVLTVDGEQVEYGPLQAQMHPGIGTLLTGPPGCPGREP
The procedure, abridged:
as §1

For the next experiment, the target named is T14, COT1 (Homo sapiens, UniProt P41279).
T14 construct: purchased Nanosyn (contract screening)
The procedure, abridged:
as §1

For the next experiment, the target named is T15, BLK (Homo sapiens, UniProt P51451).
T15 construct: purchased Nanosyn (contract screening)
The procedure, abridged: as §1

In another experiment the target is T16, p38a (Homo sapiens, UniProt Q16539).
T16 construct: Nanosyn (contract laboratory that ran the panel)
The procedure, abridged:
as §1

Another experiment deals with T17, SGK3 (Homo sapiens, UniProt Q96BR1).
T17 construct: Nanosyn (contract laboratory that ran the panel)
T17 sequence (Q96BR1 1-496): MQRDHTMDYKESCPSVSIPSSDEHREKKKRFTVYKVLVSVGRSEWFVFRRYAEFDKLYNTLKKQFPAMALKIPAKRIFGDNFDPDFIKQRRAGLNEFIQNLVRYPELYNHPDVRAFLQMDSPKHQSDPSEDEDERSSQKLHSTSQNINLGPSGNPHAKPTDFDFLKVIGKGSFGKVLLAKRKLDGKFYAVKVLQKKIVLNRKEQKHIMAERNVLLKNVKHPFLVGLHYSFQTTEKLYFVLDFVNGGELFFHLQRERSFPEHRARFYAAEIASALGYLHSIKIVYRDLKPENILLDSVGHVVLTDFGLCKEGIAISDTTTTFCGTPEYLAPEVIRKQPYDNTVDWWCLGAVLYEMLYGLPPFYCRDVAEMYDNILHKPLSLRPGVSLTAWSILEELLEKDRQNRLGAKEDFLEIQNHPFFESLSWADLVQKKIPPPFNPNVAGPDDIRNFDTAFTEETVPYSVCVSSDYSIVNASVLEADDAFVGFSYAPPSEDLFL
The procedure, abridged: as §1

Each structure is given as a SMILES string.

T12 sequence (Q15303 26-1308): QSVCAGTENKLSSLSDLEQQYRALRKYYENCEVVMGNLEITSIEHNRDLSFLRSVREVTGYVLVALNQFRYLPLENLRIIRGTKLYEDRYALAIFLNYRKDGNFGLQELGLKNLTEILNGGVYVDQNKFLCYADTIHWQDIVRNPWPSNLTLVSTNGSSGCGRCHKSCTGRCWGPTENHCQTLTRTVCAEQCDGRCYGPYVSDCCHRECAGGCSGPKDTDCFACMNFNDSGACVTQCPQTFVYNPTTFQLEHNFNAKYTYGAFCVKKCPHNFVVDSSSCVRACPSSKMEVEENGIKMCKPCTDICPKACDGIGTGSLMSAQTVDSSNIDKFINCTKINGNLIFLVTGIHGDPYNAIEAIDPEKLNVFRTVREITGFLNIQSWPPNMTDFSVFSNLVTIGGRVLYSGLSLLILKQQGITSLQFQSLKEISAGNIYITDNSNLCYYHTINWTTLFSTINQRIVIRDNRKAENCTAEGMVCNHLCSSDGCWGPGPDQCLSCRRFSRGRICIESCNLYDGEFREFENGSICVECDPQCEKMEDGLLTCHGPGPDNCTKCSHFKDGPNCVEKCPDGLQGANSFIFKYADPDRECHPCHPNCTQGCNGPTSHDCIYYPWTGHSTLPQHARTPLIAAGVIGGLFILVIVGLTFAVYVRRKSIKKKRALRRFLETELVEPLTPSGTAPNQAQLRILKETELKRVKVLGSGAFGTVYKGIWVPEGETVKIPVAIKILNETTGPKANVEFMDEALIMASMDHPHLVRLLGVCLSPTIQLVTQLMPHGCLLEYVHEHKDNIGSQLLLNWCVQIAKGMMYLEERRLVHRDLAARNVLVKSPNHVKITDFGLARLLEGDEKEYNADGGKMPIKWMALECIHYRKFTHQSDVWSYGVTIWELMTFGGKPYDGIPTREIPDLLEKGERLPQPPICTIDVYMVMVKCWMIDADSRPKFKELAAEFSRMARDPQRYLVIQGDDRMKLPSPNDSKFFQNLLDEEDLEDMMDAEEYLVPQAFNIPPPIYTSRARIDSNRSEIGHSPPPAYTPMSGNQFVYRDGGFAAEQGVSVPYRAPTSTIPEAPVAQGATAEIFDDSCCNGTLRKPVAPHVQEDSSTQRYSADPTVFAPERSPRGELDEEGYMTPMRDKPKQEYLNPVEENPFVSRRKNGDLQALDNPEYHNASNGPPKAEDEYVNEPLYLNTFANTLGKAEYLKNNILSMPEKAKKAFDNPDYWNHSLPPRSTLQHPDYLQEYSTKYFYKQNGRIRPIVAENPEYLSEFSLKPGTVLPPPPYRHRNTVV
T3 sequence (P07949 29-1114): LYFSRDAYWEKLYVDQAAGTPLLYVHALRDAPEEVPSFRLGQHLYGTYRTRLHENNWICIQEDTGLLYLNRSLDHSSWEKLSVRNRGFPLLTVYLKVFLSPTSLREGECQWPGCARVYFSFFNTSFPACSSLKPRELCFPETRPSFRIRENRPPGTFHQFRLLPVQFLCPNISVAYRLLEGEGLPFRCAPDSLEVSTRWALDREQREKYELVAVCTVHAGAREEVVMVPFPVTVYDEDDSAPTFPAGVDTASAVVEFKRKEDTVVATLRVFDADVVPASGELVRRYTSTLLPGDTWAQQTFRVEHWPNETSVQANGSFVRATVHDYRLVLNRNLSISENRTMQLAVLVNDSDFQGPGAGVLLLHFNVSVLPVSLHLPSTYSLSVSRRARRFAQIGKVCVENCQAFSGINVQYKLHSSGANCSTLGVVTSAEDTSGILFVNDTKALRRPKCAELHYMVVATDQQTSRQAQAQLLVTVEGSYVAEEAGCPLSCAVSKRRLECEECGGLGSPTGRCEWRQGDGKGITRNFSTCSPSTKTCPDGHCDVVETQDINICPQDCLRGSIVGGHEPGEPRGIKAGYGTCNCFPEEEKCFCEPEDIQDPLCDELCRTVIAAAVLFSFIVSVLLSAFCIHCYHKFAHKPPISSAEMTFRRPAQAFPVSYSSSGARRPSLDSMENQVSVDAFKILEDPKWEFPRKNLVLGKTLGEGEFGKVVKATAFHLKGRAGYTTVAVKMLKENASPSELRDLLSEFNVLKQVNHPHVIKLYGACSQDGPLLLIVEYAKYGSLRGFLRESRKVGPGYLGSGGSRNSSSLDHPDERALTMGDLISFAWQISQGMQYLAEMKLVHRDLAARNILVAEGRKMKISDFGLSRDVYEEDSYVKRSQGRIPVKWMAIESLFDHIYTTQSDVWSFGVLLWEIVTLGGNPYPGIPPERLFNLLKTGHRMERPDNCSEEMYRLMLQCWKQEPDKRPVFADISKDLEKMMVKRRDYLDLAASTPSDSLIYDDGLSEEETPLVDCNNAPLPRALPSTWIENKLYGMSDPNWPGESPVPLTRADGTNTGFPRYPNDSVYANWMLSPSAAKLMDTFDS
T6 sequence (P07948 whole entry): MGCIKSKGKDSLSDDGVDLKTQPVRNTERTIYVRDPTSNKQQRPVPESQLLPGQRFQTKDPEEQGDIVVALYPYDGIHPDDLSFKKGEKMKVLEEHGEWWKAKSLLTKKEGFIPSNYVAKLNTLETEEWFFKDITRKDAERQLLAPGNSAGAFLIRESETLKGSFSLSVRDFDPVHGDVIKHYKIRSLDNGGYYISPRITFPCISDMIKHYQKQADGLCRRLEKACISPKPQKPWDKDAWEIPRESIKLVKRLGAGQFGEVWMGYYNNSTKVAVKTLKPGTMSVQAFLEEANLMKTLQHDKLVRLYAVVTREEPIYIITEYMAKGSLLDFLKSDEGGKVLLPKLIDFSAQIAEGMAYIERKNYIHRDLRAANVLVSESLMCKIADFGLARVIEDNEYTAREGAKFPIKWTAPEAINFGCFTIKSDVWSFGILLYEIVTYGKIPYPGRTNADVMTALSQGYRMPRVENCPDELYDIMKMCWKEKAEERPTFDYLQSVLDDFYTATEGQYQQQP
T15 sequence (P51451 whole entry): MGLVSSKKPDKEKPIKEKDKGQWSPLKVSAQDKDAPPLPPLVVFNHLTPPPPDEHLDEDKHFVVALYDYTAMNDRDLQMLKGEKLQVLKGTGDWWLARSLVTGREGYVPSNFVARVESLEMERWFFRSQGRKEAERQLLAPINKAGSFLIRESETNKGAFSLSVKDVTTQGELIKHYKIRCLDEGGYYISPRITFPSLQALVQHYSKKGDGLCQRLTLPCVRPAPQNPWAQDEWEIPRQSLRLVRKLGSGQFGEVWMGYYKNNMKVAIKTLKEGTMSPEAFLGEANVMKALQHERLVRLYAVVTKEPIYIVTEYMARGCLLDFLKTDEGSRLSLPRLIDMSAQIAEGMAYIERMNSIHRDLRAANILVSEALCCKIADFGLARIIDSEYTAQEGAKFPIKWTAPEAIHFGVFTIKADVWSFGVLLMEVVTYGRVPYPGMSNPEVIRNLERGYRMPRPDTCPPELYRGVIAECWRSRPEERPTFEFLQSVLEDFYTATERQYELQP
T2 sequence (P04049 whole entry): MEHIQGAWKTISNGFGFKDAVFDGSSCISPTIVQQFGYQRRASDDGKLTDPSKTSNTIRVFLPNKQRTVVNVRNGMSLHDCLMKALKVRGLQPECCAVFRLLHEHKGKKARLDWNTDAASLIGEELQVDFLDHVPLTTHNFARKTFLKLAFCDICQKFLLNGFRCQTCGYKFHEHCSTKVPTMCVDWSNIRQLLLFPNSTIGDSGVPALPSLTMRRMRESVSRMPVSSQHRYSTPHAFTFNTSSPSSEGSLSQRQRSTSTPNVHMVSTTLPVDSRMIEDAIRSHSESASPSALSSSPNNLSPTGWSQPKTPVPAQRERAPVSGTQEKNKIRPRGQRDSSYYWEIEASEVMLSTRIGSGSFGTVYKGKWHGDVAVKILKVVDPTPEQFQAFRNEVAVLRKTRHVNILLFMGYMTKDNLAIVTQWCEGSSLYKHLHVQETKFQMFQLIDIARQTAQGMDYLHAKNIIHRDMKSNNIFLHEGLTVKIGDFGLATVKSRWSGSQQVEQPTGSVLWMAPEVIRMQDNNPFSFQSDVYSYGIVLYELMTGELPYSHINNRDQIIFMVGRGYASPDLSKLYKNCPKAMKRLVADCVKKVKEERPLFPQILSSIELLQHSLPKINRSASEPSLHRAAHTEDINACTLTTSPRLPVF
T10 sequence (Q9NYL2 whole entry): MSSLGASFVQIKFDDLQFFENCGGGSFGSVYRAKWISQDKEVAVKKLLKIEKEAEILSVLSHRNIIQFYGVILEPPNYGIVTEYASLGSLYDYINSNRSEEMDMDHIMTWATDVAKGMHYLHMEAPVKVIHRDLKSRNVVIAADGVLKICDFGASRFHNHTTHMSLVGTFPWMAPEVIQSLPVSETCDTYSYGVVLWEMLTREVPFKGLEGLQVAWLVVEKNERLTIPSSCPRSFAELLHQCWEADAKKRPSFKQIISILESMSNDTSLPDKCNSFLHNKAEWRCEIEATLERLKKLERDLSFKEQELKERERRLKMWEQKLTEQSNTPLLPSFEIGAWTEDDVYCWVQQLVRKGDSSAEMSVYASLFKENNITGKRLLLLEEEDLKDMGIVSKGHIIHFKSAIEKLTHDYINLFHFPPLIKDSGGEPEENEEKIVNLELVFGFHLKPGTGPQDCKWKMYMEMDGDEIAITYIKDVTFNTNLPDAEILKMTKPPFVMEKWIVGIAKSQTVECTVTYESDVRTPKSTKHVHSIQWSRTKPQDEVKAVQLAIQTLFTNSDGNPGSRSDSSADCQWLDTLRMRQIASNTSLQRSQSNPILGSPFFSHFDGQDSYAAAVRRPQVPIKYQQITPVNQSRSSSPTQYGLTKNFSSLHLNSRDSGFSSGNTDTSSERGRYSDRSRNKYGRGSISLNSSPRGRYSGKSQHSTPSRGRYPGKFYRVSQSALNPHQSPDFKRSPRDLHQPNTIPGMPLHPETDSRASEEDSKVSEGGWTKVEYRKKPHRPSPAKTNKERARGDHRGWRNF

As for `Cc1ccc(NC(=O)c2cc([S+](C)[O-])n(-c3ccc(F)cc3)n2)cc1-c1cc(OCCO)nc(N2CCOCC2)c1` (stereo not shown) [Ex10, 1-(4-fluorophenyl)-N-(3-(2-(2-hydroxyethoxy)-6-morpholinopyridin-4-yl)-4-methylphenyl)-5-(methylsulfinyl)-1H-pyrazole-3-carboxamide], the inhibition at 5 µM was less than 79% against LYNb; not below 95% at CRAF; less than 79% on RET; less than 79% at PIKfyve; less than 79% against PDGFRb; less than 79% on LYNa. In addition, the inhibition at 5 µM against FYN, at SGK2, against Abl1, against ZAK, against PDGFRa and against ERBB4 was less than 79% in each case. Further, the inhibition at 5 µM on SPHK2, on COT1, on BLK, on p38a and against SGK3 was less than 79% throughout.
In the case of `Cc1ccc(NC(=O)c2cc([S+](C)[O-])n(-c3ccc(F)cc3)n2)cc1C#Cc1cnc2cccnn12` (stereo not shown) [Ex6, 1-(4-fluorophenyl)-N-(3-(imidazo[1,2-b]pyridazin-3-ylethynyl)-4-methylphenyl)-5-(methylsulfinyl)-1H-pyrazole-3-carboxamide], the inhibition at 5 µM on LYNb is not below 95%; at CRAF, not below 95%; against RET, 90 to 94%; against PIKfyve, 90 to 94%; against PDGFRb, not below 95%; against LYNa, 90 to 94%. The inhibition at 5 µM on FYN is not below 95%; against SGK2, 90 to 94%; against Abl1, less than 79%; against ZAK, less than 79%; at PDGFRa, not below 95%; against ERBB4, less than 79%. The inhibition at 5 µM against SPHK2 was less than 79%; at COT1, less than 79%; against BLK, 80 to 89%; at p38a, 90 to 94%; against SGK3, less than 79%.
For the molecule `Cc1ccc(NC(=O)c2cc(S(C)(=O)=O)n(-c3ccc(F)cc3)n2)cc1Nc1ccc2ncn(C)c(=O)c2c1` [Ex4, 1-(4-fluorophenyl)-N-(4-methyl-3-((3-methyl-4-oxo-3,4-dihydroquinazolin-6-yl)amino)phenyl)-5-(methylsulfonyl)-1H-pyrazole-3-carboxamide], the inhibition at 5 µM against LYNb was less than 79%; against CRAF, not below 95%; against RET it was 90 to 94%; at PIKfyve it was less than 79%; against PDGFRb it was 80 to 89%; at LYNa, less than 79%. The inhibition at 5 µM at FYN, against SGK2, on Abl1, on ZAK, on PDGFRa and against ERBB4 was less than 79% each time. For the same molecule, the inhibition at 5 µM against SPHK2 is less than 79%; on COT1 it was less than 79%; on BLK, less than 79%; at p38a, 80 to 89%; on SGK3, less than 79%.
For `CCOC(=O)Nc1cn2nc(Nc3cc(NC(=O)c4cc([S+](C)[O-])n(-c5ccc(F)cc5)n4)ccc3C)ccc2n1` (stereo not shown) [Ex18, ethyl (6-((5-(1-(4-fluorophenyl)-5-(methylsulfinyl)-1H-pyrazole-3-carboxamido)-2-methylphenyl)amino)imidazo[1,2-b]pyridazin-2-yl)carbamate], the inhibition at 5 µM against LYNb is less than 79%; against CRAF it was not below 95%; on RET it was 80 to 89%; on PIKfyve it was less than 79%; against PDGFRb it was 90 to 94%; on LYNa, not below 95%. The inhibition at 5 µM on FYN was not below 95%; at SGK2 it was less than 79%; on Abl1, not below 95%; at ZAK, less than 79%; against PDGFRa it was 90 to 94%; against ERBB4, less than 79%. Also, the inhibition at 5 µM was 80 to 89% on SPHK2; less than 79% against COT1; less than 79% at BLK; not below 95% against p38a; less than 79% at SGK3.
On to `Cc1ccc(NC(=O)c2cc([S+](C)[O-])n(-c3ccc(F)cc3)n2)cc1-c1cc(N2CCOCC2)c(=O)n(C)c1` (stereo not shown) [Ex11, 1-(4-fluorophenyl)-N-(4-methyl-3-(1-methyl-5-morpholino-6-oxo-1,6-dihydropyridin-3-yl)phenyl)-5-(methylsulfinyl)-1H-pyrazole-3-carboxamide], for which the inhibition at 5 µM against LYNb was less than 79%; against CRAF it was not below 95%; on RET it was less than 79%; against PIKfyve it was less than 79%; at PDGFRb, less than 79%; against LYNa it was less than 79%. Further, the inhibition at 5 µM against FYN, against SGK2, against Abl1, on ZAK, on PDGFRa and at ERBB4 was less than 79% in each case. Besides, the inhibition at 5 µM at SPHK2 was less than 79%; at COT1, less than 79%; at BLK it was less than 79%; against p38a, not below 95%; at SGK3, less than 79%.
